The record followed here is patent EP4282435A1, “FORMULATIONS OF ACTIVE PHARMACEUTICAL INGREDIENTS AND EXCIPIENTS IN ICELLS VIA HYDROPHOBIC ION PAIRING” (Danmarks Tekniske Universitet, priority 2022, dated 2023).

Where two headings read alike, the source gives them in different places.

Data set [1] in a line: HIP complexation of SIINFEKL with SDS (HPLC of supernatant). Type of data set: physicochemical. The protocol: (1.5 mg/mL) was dissolved in 0.01 M HCI. […] The […] and co-ion solution were mixed in equal volumes, followed by shaking and centrifugation steps as described in method 1 of example 2. The supernatant was removed the content of […] was evaluated by HPLC.
HPLC method: Samples were analyzed on a Shimadzu Nexera-X with PDA. Samples were injected (40 µL) onto a Waters Terra XBridge BEH C8 column (2.5 µm, 4.6x150mm, temperature 25 °C) at a flow rate of 1 mL/min. The solvent system consisted of mobile phase A (5% MeCN, 0.1% TFA in water) and mobile phase B (0.1% TFA in MeCN). The gradient was 0% B for 1.5 min, 0 to 100% B in 7 min, 100% B for 1.5 min, 100% B to 0% B in 0.5 min, 0% B for 1.5 min. […] was quantified by UV at 220 nm.

Data set [2] can be described thus: Solubility and stability of ICG HIP complex in different solvents (HPLC). Type of data set: physicochemical. Conditions: native non-complexed ICG in water, 5 days at 25°C in the dark, HPLC 280 nm. The protocol: (§1) Chloroform was dried under a gentle flow of nitrogen.
HPLC analysis: Samples were analyzed on a Shimadzu Nexera-X HPLC. […] The solvent system consisted of mobile phase A (5% MeCN, 0.1% TFA in water) and mobile phase B (0.1% TFA in MeCN). The gradient was 0% B for 1 min, 0 to 100% B in 5 min, 100% B for 4 min, 100% B to 0% B in 0.5 min, 0% B for 1 min. UV detection at 280 nm was used to measure the AUC of ICG and its related degradation products.

The nature of data set [3]: Solubility of ICG HIP complexes in ICell (visual). Here is the method: (§2) For each co-ion, the chloroform phase was isolated and transferred to new glass vials. Chloroform was dried under a gentle flow of nitrogen.
(§3) 1 g of ICell was added to each vial containing the previously isolated ICG HIP complexes. In addition, 1 g of ICell was added to a vial containing 2.5 mg of native ICG.

Data set [4] is described as follows: Stability of ICG HIP complexes in ICell (HPLC). Type of data set: physicochemical. Conditions: ICG complexed with the named co-ion in SuBen:GTO:EtOH (60:25:15) ICell, 7 weeks in the dark at room temperature, percentage AUC of ICG at 280 nm. Here is the method:
as §2, §3
Stability study: After preparation, ICells were stored at room temperature and protected from light. After 7 weeks, approximately 25 µL of each formulation were taken and dissolved in 500 µL of acetonitrile. The samples were then analyzed by HPLC. HPLC analysis: Samples were analyzed on a Shimadzu Nexera-X HPLC. Samples were injected (5 µL) onto a Waters Terra XBridge BEH C18 column (2.5 µm, 4.6x75mm, temperature 25 °C) at a flow rate of 1 mL/min. The solvent system consisted of mobile phase A (5% MeCN, 0.1% TFA in water) and mobile phase B (0.1% TFA in MeCN). The gradient was 0% B for 1 min, 0 to 100% B in 5 min, 100% B for 4 min, 100% B to 0% B in 0.5 min, 0% B for 1 min. UV detection at 280 nm was used to measure the AUC of ICG and its related degradation products.

Data set [5] can be described thus: HIP complexation efficacy of clindamycin (UHPLC of organic phase). It counts as physicochemical. The conditions noted are these: percentage of clindamycin complexed with the named co-ion, 1:1 charge ratio. The protocol: HIP complexation via Bligh-Dyer method: […] Moreover, chloroform and methanol were mixed before the addition of the aqueous clindamycin solution. […] The dried complex was re-suspended in methanol and analyzed by UHPLC to determine the amount of clindamycin. HIP complexation via modified Bligh-Dyer method: […] Next, 4 mL of chloroform were added and the resulting monophase was shaken at 400 rpm at room temperature for 30 min. 4 mL of chloroform followed by 4 mL of water were added to form a biphasic system. Isolation and analysis of the dried complex was done as described beforehand for the Bligh-Dyer method. UHPLC method: Samples were analyzed on a Shimadzu Nexera-X with a PDA detector. Samples were injected (5 μL) onto a Waters Terra XBridge BEH C8 column (2.5 μm, 4.6x75mm, temperature 25 °C) at a flow rate of 1 mL/min.

Data set [6] in a line: In vitro release of clindamycin-HIP complexes from ICell into PBS. Type of data set: in vitro ADME. The conditions noted are these: clindamycin or its HIP complex with the named co-ion, SuBen:GTH:EtOH (60:20:20) ICell, 20 mg/g, PBS 37°C, after 8 days, mean (n=2). Here is the method:
ICell formulation: […] […] In vitro release: 50 μL of each ICell were individually injected in 8-mL glass vials containing 2 mL PBS, for which the exact amount of injected ICell was weighed. The vials were incubated at 37 °C and at each sampling point 1 mL of PBS was taken. 1 mL of fresh buffer was added immediately to the vial to replace the taken sample. The samples were then analyzed by HPLC and the concentration of drug in the release media was calculated. UHPLC method: HPLC analyses were done using a Shimadzu Nexera-X UHPLC instrument with a PDA detector. The samples were injected (40 μL) onto a Waters Terra BEH C8 column (2.5μm, 4.6x75mm, temperature 25°C) at a flow rate of 0.8 mL/min.

How the values of data set [7] were obtained: After removing the supernatant, the complex was dissolved in methanol, transferred to a new glass vial and the solvent was dried under a gentle nitrogen flow. […] The chloroform phase was isolated, transferred to a new vial and subsequently chloroform was dried under a gentle flow of nitrogen.
A short description of data set [8]: HIP complexation of gentamicin (HPLC-ELSD of supernatant or aqueous phase). Type of data set: physicochemical. Conditions: Bligh-Dyer method, 1:1 charge ratio; gentamicin not detected in aqueous phase. Here is the method: HIP complexation via organic-solvent free method: […] A white precipitate was obtained, which corresponded to the HIP complex. The supernatant was removed and its gentamicin content was evaluated by HPLC. […] A sample of the aqueous phase was taken to evaluate its gentamicin content by HPLC. HPLC method: Samples were analyzed on a Shimadzu Nexera-i with an evaporative light scattering detector (ELSD). Samples were injected (5 µL) onto a Waters Terra XBridge BEH C8 column (5 µm, 4.6x150mm, temperature 25 °C) at a flow rate of 1 mL/min.

Data set [9] in a line: Effect of co-ions on surface tension of ICell (visual appearance of injected depots). Type of data set: physicochemical. Conditions: co-ion alone (2 mM or 10 mM, no ICG) in SuBen:GTH:DMSO or SuBen:GTO:EtOH ICell, in PBS, 7 days at 37°C. Here is the method: ICell formulation: A SuBen:GTH:DMSO (60:20:20), SuBen:GTH:DMSO (60:20:15) and a SuBen:GTO:EtOH (60:25:10) ICell were prepared as described in example 4. Effect on surface tension without ICG: TOAB was dissolved in DMSO and EtOH to produce solutions with a concentration of […]. CTAB was dissolved in EtOH to produce solutions with a concentration of […]. 0.03 g of each co-ion solution were individually added to 0.57 g of either a SuBen:GTH:DMSO (60:20:15) or a SuBen:GTO:EtOH (60:25:10) ICell. Thus, the final co-ion concentration in each ICell was 2mM or 10 mM. 50 µL of the previously prepared ICells were injected in glass vials containing 2 mL PBS. The vials were incubated at 37°C during 7 days and the visual appearance of the injected depots was evaluated.
as §1
Effect on surface tension with ICG: SuBen:GTH:DMSO (60:20:20) ICell was proportionally added to the previously isolated ICG HIP complexes to obtain formulations with a final ICG concentration of either 0.1 or 2.5 mg/g as described in Table 4. 50 µL of these ICells were injected in glass vials containing 2 mL PBS. The vials were incubated at 37°C during 3 days and the visual appearance of the injected depots was evaluated.

Data set [10] is described as follows: HIP complexation of ICG by method 3 (Bligh-Dyer), judged by colour of the phases. It counts as physicochemical. The conditions noted are these: co-ion:ICG 1:1 molar ratio. The protocol:
HIP method 3 (Bligh-Dyer method): ICG (5 mg/mL) was dissolved in a 0.01 M HCI solution. Benethamine, dodecylamine, CTAB and tetraethyl ammonium bromide were used as co-ions. Each co-ion was dissolved in methanol in a 1:1 molar ratio to ICG. In an 8-mL glass vial, 1 mL of chloroform, 2 mL of co-ion solution (methanol), and 1 mL of ICG solution (water) were added in that order (methanol without co-ions was used as a control). The vials was gently shaken (i.e., slowly turned over 2-3 times) and incubated for 45 min at room temperature in the dark. Then 1 mL of water was added followed by 1 mL of chloroform. The vial was gently shaken again and incubated for 45 min at room temperature in the dark. The resulting HIP complex is present in the lower organic phase.
DB36 and ICG are negatively charged molecules, which are very soluble in water, but not in organic solvents such as chloroform. All the used co-ions have a positive charge and they could form hydrophobic ion pairing (HIP) complexes with either DB36 or ICG. When solubilized, DB36 and ICG form dark blue or green solutions, respectively. Thus, successful HIP complexation was assessed by either observing precipitates (for method 1) or a change in coloration in the chloroform phase (for methods 2 and 3). […]

On data set [11], the source says:
The chloroform phase was isolated, transferred to a new vial and subsequently chloroform was dried under a gentle flow of nitrogen.
This is another data set of the same source.

The subject of data set [12] is S. aureus strain S54F9. Briefly: Microbiological assay, Disc Diffusion Assay. The conditions noted are these: 24 hours at 37 °C. Type of data set: cell-based, Staphylococcus aureus. The protocol: Then, 3 wells were carved out with the use of the broad side of an autoclaved 1 ml pipette tip.
This setup was repeated for three experimental replicates. Each plate was incubated for 24 hours at 37 °C, before inspection.
Then, 3 wells were carved out with the use of the broad side of an autoclaved 1 ml pipette tip. In one well, 0.5 mg linoleic acid was injected as 90 µl 0.22 µm-sterile-filtered dimethyl sulfoxide. In a second well, 90 µl autoclaved phosphate-buffered saline with 0.5 mg vancomycin hydrochloride was injected. […] The plate was incubated for 24 hours at 37 °C, before inspection.
For orientation: In agar diffusion tests the substance spreads into inoculated agar from a disc or well.

The mark [13] stands for this setting: ICG or its HIP complex with the named co-ion in SuBen:GTO:EtOH (60:25:15) ICell, about 2.5 mg ICG per 1 g ICell, visual.

For the compound `CC[C@H](C)[C@H](NC(=O)[C@@H](NC(=O)[C@@H](N)CO)[C@@H](C)CC)C(=O)N[C@@H](CC(N)=O)C(=O)N[C@@H](Cc1ccccc1)C(=O)N[C@@H](CCC(=O)O)C(=O)N[C@@H](CCCCN)C(=O)N[C@@H](CC(C)C)C(=O)O` [HIP complex of SIINFEKL with SDS], in [1], the solubility in methanol result is listed as “soluble”.
On to `CC1(C)C(/C=C/C=C/C=C/C=C2\N(CCCCS(=O)(=O)O)c3ccc4ccccc4c3C2(C)C)=[N+](CCCCS(=O)(=O)[O-])c2ccc3ccccc3c21` [ICG, indocyanine green, reference compound], for which the stability result in [2] is given as “no longer visible in the chromatogram”. Also, the “solubility in ICell” value in data set [3] (setting [13]) is “not soluble”.
As for `CC[C@H](C)[C@H](NC(=O)[C@@H](NC(=O)[C@@H](N)CO)[C@@H](C)CC)C(=O)N[C@@H](CC(N)=O)C(=O)N[C@@H](Cc1ccccc1)C(=O)N[C@@H](CCC(=O)O)C(=O)N[C@@H](CCCCN)C(=O)N[C@@H](CC(C)C)C(=O)O` [SIINFEKL] [reference compound], the solubility in methanol result in data set [1] is recorded as “insoluble”.
With `CC[N+](CC)(CC)CC.[Br-]` [Tetraethyl ammonium bromide], the “ICG % AUC” value in [4] is given as 96.3%.
Turning to `CCCCCCCC/C=C\CCCCCCCC(=O)[O-].[Na+]` [Sodium oleate], in [5], the “Complexation efficacy Bligh-Dyer method” value is given as 72% and the “Complexation efficacy Modified Bligh-Dyer method” value is recorded as 72%. Moreover, the “release of clindamycin from the ICell” value in data set [6] is recorded as 96%.
Turning to `CCCCC(CC)COC(=O)CC(C(=O)OCC(CC)CCCC)S(=O)(=O)O` (stereo not shown) [Sodium docusate], the “solubility in ICell” value in data set [7] is “easily solubilized”. In data set [8], the gentamicin complexed is given as 100%.
In the case of `CCCCCCCCCCCCCCCC[N+](C)(C)C` [CTAB], the “visual appearance of injected ICell depots (surface tension)” value in data set [9] is on record as “had flatten”. Also, in [3] (setting [13]), the “solubility in ICell” value is listed as “easily solubilized”. In addition, in data set [4], the “ICG % AUC” value was determined as 97.6%. For the same compound, the ICG complexed in data set [10] is on record as about 100%.
As for `CCCCCCCCCCCCN` [Dodecylamine], the “solubility in ICell” value in data set [3] is “easily solubilized”. Moreover, the “ICG % AUC” value in data set [4] is recorded as 95.3%. Further, in [10], the ICG complexed is recorded as about 100%.
`CCCCCCC/C=C\C(=O)O` [C2DA]: the “solubility in ICell” value in data set [11] (clindamycin or its HIP complex with the named co-ion, SuBen:GTH:EtOH (60:20:20) ICell, clindamycin 20 mg/g, visual) was “easily solubilized”. Further, in data set [5], the “Complexation efficacy Bligh-Dyer method” value is listed as 80% and the “Complexation efficacy Modified Bligh-Dyer method” value was determined as 72%.
`CC(=O)NC[C@H]1CN(c2ccc(N3CCOCC3)c(F)c2)C(=O)O1` [linezolid, Linezolid]: the “antimicrobial activity (clearing zone) after release from ICell” value in data set [12] (Example 23, 50 µl ICell per well (gentamicin-docusate 20 mg/g, Linezolid 15 mg/g in SuBen:GTO:EtOH (60:25:15))) was “clearing zone”.
Take `CCCCC/C=C\C/C=C\CCCCCCCC(=O)O` [Linoleic acid]: the “solubility in ICell” value in data set [11] is recorded as “easily solubilized”. In data set [5], the “Complexation efficacy Bligh-Dyer method” value amounted to 64% and the “Complexation efficacy Modified Bligh-Dyer method” value came out at 80%. In addition, the “antimicrobial activity (clearance of S. aureus)” value in [12] (Example 24, wells: 0.5 mg linoleic acid in DMSO, 0.5 mg vancomycin hydrochloride, 45 µl HIP complex + 45 µl PBS) was “has an antimicrobial effect, but to an extent lesser than vancomycin”.
